Source: ChEMBL document CHEMBL1147357, “Antihypertensive Activity of Corilagin and Chebulinic Acid, Tannins from Lumnitzera, racemosa” (1993)
Activity calls are given as the source filed them. No cut-off for these calls is given here.

Assays:
Rattus norvegicus [1] = experiment: Antihypertensive activity in conscious SHR rat assessed as maximal change in tail arterial blood pressure at 50 mg/kg, iv measured at 10 mins interval relative to blood pressure obtained at preinjection; assay type: functional, Artery
Rattus norvegicus [2] = experiment: Antihypertensive activity in iv dosed conscious normotensive WKY rat assessed as maximal change in tail arterial blood pressure measured at 10 mins interval by dose-response curve analysis; assay type: functional; details: Artery
Rattus norvegicus [3] = experiment: Antihypertensive activity in conscious SHR rat assessed as maximal change in tail arterial blood pressure at 20 mg/kg, iv measured at 10 mins interval relative to blood pressure obtained at preinjection; assay type: functional, Artery
Rattus norvegicus [4] = experiment: Antihypertensive activity in iv dosed conscious SHR rat assessed as maximal change in tail arterial blood pressure measured at 10 mins interval by dose-response curve analysis; assay type: functional; details: Artery
Rattus norvegicus [5] = experiment: Induction of hypotensive effect in conscious normotensive WKY rat; assay type: functional, organism-based
Rattus norvegicus [6] = experiment: Antihypertensive activity in conscious SHR rat assessed as lowering of tail arterial mean blood pressure at 5 mg/kg during 10 to 130 mins by indirect tail-cuff method; assay type: functional, organism-based; set-up: dose 5 mg/kg; details: Artery
Rattus norvegicus [7] = experiment: Antihypertensive activity in conscious SHR rat assessed as maximal change in tail arterial blood pressure at 10 mg/kg, iv measured at 10 mins interval relative to blood pressure obtained at preinjection; assay type: functional, Artery
Rattus norvegicus [8] = experiment: Induction of […] activity in conscious normotensive WKY rat assessed as maximal change in tail arterial blood pressure at 15 mg/kg, iv measured at 10 mins interval relative to blood pressure obtained at preinjection; assay type: functional, organism-based; set-up: dose 15 mg/kg
Rattus norvegicus [9] = experiment: Antihypertensive activity in conscious SHR rat assessed as maximal change in tail arterial blood pressure at 15 mg/kg, iv measured at 10 mins interval relative to blood pressure obtained at preinjection; assay type: functional, Artery

| Structure (SMILES) | Activity (Rattus norvegicus [1]) [mmHg] | ED50 (Rattus norvegicus [2]) [mg/kg] | Activity (Rattus norvegicus [4]) | ED50 (Rattus norvegicus [4]) [mg/kg] | Activity (Rattus norvegicus [5]) | Activity (Rattus norvegicus [6]) | further results |
| --- | --- | --- | --- | --- | --- | --- | --- |
| O=C(OC[C@H]1O[C@@H](OC(=O)c2cc(O)c(O)c(O)c2)[C@H](OC(=O)c2cc(O)c(O)c(O)c2)[C@@H](OC(=O)c2cc(O)c(O)c(O)c2)[C@@H]1O)c1cc(O)c(O)c(O)c1 | 2.3 |  |  |  |  |  |  |
| O=C1O[C@@H]2[C@@H](OC(=O)c3cc(O)c(O)c(O)c3-c3c1cc(O)c(O)c3O)[C@H](O)[C@@H](CO)O[C@H]2O | -5.5 |  |  |  |  |  |  |
| O=C(OC[C@H]1O[C@@H](O)[C@H](OC(=O)c2cc(O)c(O)c(O)c2)[C@@H](OC(=O)c2cc(O)c(O)c(O)c2)[C@@H]1OC(=O)c1cc(O)c(O)c(O)c1)c1cc(O)c(O)c(O)c1 | -5.2 |  |  |  |  |  |  |
| O=C(O[C@@H]1[C@@H](OC(=O)c2cc(O)c(O)c(O)c2)[C@H](O)[C@@H](CO)O[C@H]1O)c1cc(O)c(O)c(O)c1 | 4.52 |  |  |  |  |  |  |
| O=C1OC[C@H]2OC(=O)c3cc(O)c(O)c(O)c3-c3c(O)c(O)c(O)c4c3C(=O)O[C@H]([C@H]3OC(=O)c5c-4c(O)c(O)c(O)c5[C@H]3O)[C@@H]2OC(=O)c2cc(O)c(O)c(O)c2-c2c1cc(O)c(O)c2O [CASTALAGIN] |  | 6.4 | Dose-dependent effect | 6.3 | Active | Active | Activity (Rattus norvegicus [3]): -49.6 mmHg |
| O=C(O)C[C@@H]1C(=O)O[C@H]2[C@@H]3OC(=O)c4cc(O)c(O)c(O)c4-c4c(cc(O)c(O)c4O)C(=O)OC[C@H]2O[C@@H](OC(=O)c2cc(O)c(O)c(O)c2)[C@@H]3OC(=O)c2cc(O)c(O)c3c2[C@H]1[C@H](O)C(=O)O3 [CHEBULAGIC ACID] | -6.5 |  |  |  |  |  |  |
| O=C(O)C[C@H]1C(=O)O[C@H]2[C@H](OC(=O)c3cc(O)c(O)c(O)c3)[C@@H](OC(=O)c3cc(O)c(O)c4c3[C@H]1[C@H](O)C(=O)O4)[C@H](OC(=O)c1cc(O)c(O)c(O)c1)O[C@@H]2COC(=O)c1cc(O)c(O)c(O)c1 [CHEBULINIC ACID] |  | 3.4 | Dose-dependent effect | 3.2 | Active | Active | Activity (Rattus norvegicus [7]): -76.9 mmHg |
| O=C(O[C@@H]1O[C@@H]2COC(=O)c3cc(O)c(O)c(O)c3-c3c(cc(O)c(O)c3O)C(=O)O[C@H]([C@H]1O)[C@@H]2O)c1cc(O)c(O)c(O)c1 [CORILAGIN] |  | 6.5 | Dose-dependent effect | 6.7 | Active | Active | Activity (Rattus norvegicus [3]): -52.6 mmHg |
| O=C(OC[C@H]1O[C@@H](OC(=O)c2cc(O)c(O)c(O)c2)[C@H](OC(=O)c2cc(O)c(O)c(O)c2)[C@@H](OC(=O)c2cc(O)c(O)c(O)c2)[C@@H]1OC(=O)c1cc(O)c(O)c(O)c1)c1cc(O)c(O)c(O)c1 [PENTAGALLOYL GLUCOSE] | -7.1 |  |  |  |  |  |  |
| O=C1O[C@@H]2[C@@H](OC(=O)c3cc(O)c(O)c(O)c3-c3c1cc(O)c(O)c3O)[C@H](O)O[C@@H]1COC(=O)c3cc(O)c(O)c(O)c3-c3c(O)c(O)c4oc(=O)c5c(c(O)c(O)c6oc(=O)c3c4c65)-c3c(cc(O)c(O)c3O)C(=O)O[C@@H]21 [PUNICALAGIN] |  |  |  | 5.4 |  |  | Activity (Rattus norvegicus [8]): Active; Activity (Rattus norvegicus [9]): -63.4 mmHg |
